# Patent publication US7612064B2, “Sulfopyrroles” (Takeda Pharmaceutical Company Limited, priority 2003, dated 2009)
# Legend:
# Jurkat [1] = assay: PI staining for cell cycle distribution; format: cell-based, human; set-up: key: 0: no effect; 1: weak effect; 2: strong effect; conditions: Jurkat 3μM, 48 h
# Procedure: (§1) 1-2*10^5 cells are seeded into 24 well tissue culture plates and incubated for 24 h prior to compound addition. […] Adherent cells are harvested by trypsinization. The cell suspensions are fixed by adding 2 parts ice cold ethanol 100% while vortexing. Then the samples are stored for>2 h at −20° C. Subsequently the cells are washed with PBS once and resuspended in 250 μl PBS containing 50 μg/ml PI (Calbiochem # 537059), then the samples are incubated at 37° C. for 30 min and subsequently analyzed on a FACSCalibur™ monitoring linear PI fluorescence activity on FL2. The readout allows the detection of a possible direct or indirect influence of the tested compounds on the cell cycle. The following events can occur: a) Generation of a subG1 peak indicative for DNA fragmentation, b) increase of the cell population arrested in G2M phase. Both events are scored by 1 for weak and 2 for strong occurrence. 0 indicates no occurrence at all.
# HeLa [2] = assay: PI staining for cell cycle distribution; format: cell-based, human; set-up: key: 0: no effect; 1: weak effect; 2: strong effect; conditions: HeLa 10μM, 48 h
# Procedure: as §1
# Jurkat [3] = assay: MTS proliferation assay; format: cell-based, human; conditions: 72 h
# Summary of the method: (§2)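 Absorbance at 492 nm after a 3 h MTS incubation reports viable cell number. Before that, compounds at 10 μM, 3 μM, 1 μM and 0.3 μM final stay on the cells for 72 h at culture conditions.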
# HeLa [4] = assay: MTS proliferation assay; format: cell-based, human; conditions: 72 h
# Summary of the method: as §2
# [5] = Hoechst 33342 nuclear staining; format: cell-based; conditions: 24 h or 48 h incubation; for Hoechst 33342 nuclear staining score, H460: H460 cells; for Hoechst 33342 nuclear staining score, HeLa: HeLa cells; for Hoechst 33342 nuclear staining score, Jily: Jily cells; for Hoechst 33342 nuclear staining score, Jurkat: Jurkat cells; for Hoechst 33342 nuclear staining score, MRC5: MRC5 cells;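 as to all read-outs here: apoptotic nuclei scored 0 none 1 weak under 50% of cells 2 strong over 50% of cells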
# Summary of the method: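 After a further 30 min incubation, plates were inspected on a standard inverted fluorescence microscope. The fraction of apoptotic nuclei and other apoptosis-specific morphology were scored as 0 for no activity, 1 for weak activity in less than 50% of the cells, and 2 for strong activity in more than 50% of the cells.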
# Jily = assay: MTS proliferation assay; format: cell-based; conditions: 72 h
# Summary of the method: as §2
# MRC5 = assay: MTS proliferation assay; format: cell-based; conditions: MRC5, 72 h
# Summary of the method: as §2
# [6] = conc 0.1 (final concentrations in μM)
# [7] = conc 0.3 (final concentrations in μM)
# [8] = conc 1 (final concentrations in μM)
# [9] = conc 3 (final concentrations in μM)
smiles,measurement,setting,value
COc1cc(-c2cc(-c3cncc(C(N)=O)c3)cn2S(=O)(=O)c2ccc(C)cc2)cc(OC)c1OC [Example 56],"PI staining for cell cycle distribution, G2M",Jurkat [1],1
same,"PI staining for cell cycle distribution, subG1",Jurkat [1],0
same,"PI staining for cell cycle distribution, G2M",HeLa [2],2
same,"PI staining for cell cycle distribution, subG1",HeLa [2],0
same,IC50,Jurkat [3],< 0.2 µM
same,IC50,HeLa [4],< 1 µM
same,"Hoechst 33342 nuclear staining score, H460",[5]; [6],0
same,"Hoechst 33342 nuclear staining score, H460",[5]; [7],2 (strong activity comprising more than 50% of the cells)
same,"Hoechst 33342 nuclear staining score, H460",[5]; [8],2 (strong activity comprising more than 50% of the cells)
same,"Hoechst 33342 nuclear staining score, H460",[5]; [9],2 (strong activity comprising more than 50% of the cells)
same,"Hoechst 33342 nuclear staining score, HeLa",[5]; [6],0
same,"Hoechst 33342 nuclear staining score, HeLa",[5]; [7],0
same,"Hoechst 33342 nuclear staining score, HeLa",[5]; [8],2 (strong activity comprising more than 50% of the cells)
same,"Hoechst 33342 nuclear staining score, HeLa",[5]; [9],2 (strong activity comprising more than 50% of the cells)
same,"Hoechst 33342 nuclear staining score, Jily",[5]; [6],0
same,"Hoechst 33342 nuclear staining score, Jily",[5]; [7],2 (strong activity comprising more than 50% of the cells)
same,"Hoechst 33342 nuclear staining score, Jily",[5]; [8],2 (strong activity comprising more than 50% of the cells)
same,"Hoechst 33342 nuclear staining score, Jily",[5]; [9],2 (strong activity comprising more than 50% of the cells)
same,"Hoechst 33342 nuclear staining score, Jurkat",[5]; [6],0
same,"Hoechst 33342 nuclear staining score, Jurkat",[5]; [7],2 (strong activity comprising more than 50% of the cells)
same,"Hoechst 33342 nuclear staining score, Jurkat",[5]; [8],2 (strong activity comprising more than 50% of the cells)
same,"Hoechst 33342 nuclear staining score, Jurkat",[5]; [9],2 (strong activity comprising more than 50% of the cells)
same,"Hoechst 33342 nuclear staining score, MRC5",[5]; [6],0
same,"Hoechst 33342 nuclear staining score, MRC5",[5]; [7],2 (strong activity comprising more than 50% of the cells)
same,"Hoechst 33342 nuclear staining score, MRC5",[5]; [8],2 (strong activity comprising more than 50% of the cells)
same,"Hoechst 33342 nuclear staining score, MRC5",[5]; [9],2 (strong activity comprising more than 50% of the cells)
same,"Hoechst 33342 nuclear staining score, PBLs",[5]; [6],0
same,"Hoechst 33342 nuclear staining score, PBLs",[5]; [7],0
same,"Hoechst 33342 nuclear staining score, PBLs",[5]; [8],0
same,"Hoechst 33342 nuclear staining score, PBLs",[5]; [9],0
same,IC50,Jily,< 1 µM
same,IC50,MRC5,< 1 µM
